Test results from ChEMBL document CHEMBL1143892, “Oligo(tyrosine sulfate)s as heparin pentasaccharide mimic: evaluation by surface noncovalent affinity mass spectrometry” (2008).
Non-standard residues stand in square brackets, D forms with d. Residues, ends and D or L forms follow the SMILES beside them. *: point of attachment. X1 = O=C([C@H](Cc1ccc(OS(=O)(=O)O)cc1)NS(=O)(=O)O)*; sY = N[C@@H](Cc1ccc(OS(=O)(=O)O)cc1)C(=O)O

Tests used:
Format in all cases: functional
[1] = tested on: Plasma; assay: Anticoagulant activity in human plasma assessed as activated partial thromboplastin time at 0.01 mg/ml after 15 mins
[2] = tested on: Plasma; assay: Anticoagulant activity in human plasma assessed as activated partial thromboplastin time at 0.1 mg/ml after 15 mins
[3] = tested on: Plasma; assay: Anticoagulant activity in human plasma assessed as activated partial thromboplastin time at 0.03 mg/ml after 15 mins
[4] = tested on: Plasma; assay: Anticoagulant activity in human plasma assessed as activated partial thromboplastin time at 1 mg/ml after 15 mins
[5] = tested on: Plasma; assay: Anticoagulant activity in human plasma assessed as activated partial thromboplastin time at 0.3 mg/ml after 15 mins

| SMILES | APTT [1] | APTT [2] | APTT [3] | APTT [4] | APTT [5] |
| --- | --- | --- | --- | --- | --- |
| N[C@@H](Cc1ccc(OS(=O)(=O)[O-])cc1)C(=O)N[C@@H](Cc1ccc(OS(=O)(=O)[O-])cc1)C(=O)N[C@@H](Cc1ccc(OS(=O)(=O)[O-])cc1)C(=O)N[C@@H](Cc1ccc(OS(=O)(=O)[O-])cc1)C(=O)N[C@@H](Cc1ccc(OS(=O)(=O)[O-])cc1)C(=O)N[C@@H](Cc1ccc(OS(=O)(=O)[O-])cc1)C(=O)N[C@@H](Cc1ccc(OS(=O)(=O)[O-])cc1)C(=O)O.[Na+].[Na+].[Na+].[Na+].[Na+].[Na+].[Na+] (H-[sY][sY][sY][sY][sY][sY][sY]-OH) | 30.4 s | 31 s | 30.5 s | 40.6 s | 32.4 s |
| N[C@@H](Cc1ccc(OS(=O)(=O)[O-])cc1)C(=O)N[C@@H](Cc1ccc(OS(=O)(=O)[O-])cc1)C(=O)N[C@@H](Cc1ccc(OS(=O)(=O)[O-])cc1)C(=O)N[C@@H](Cc1ccc(OS(=O)(=O)[O-])cc1)C(=O)N[C@@H](Cc1ccc(OS(=O)(=O)[O-])cc1)C(=O)N[C@@H](Cc1ccc(OS(=O)(=O)[O-])cc1)C(=O)N[C@@H](Cc1ccc(OS(=O)(=O)[O-])cc1)C(=O)N[C@@H](Cc1ccc(OS(=O)(=O)[O-])cc1)C(=O)N[C@@H](Cc1ccc(OS(=O)(=O)[O-])cc1)C(=O)N[C@@H](Cc1ccc(OS(=O)(=O)[O-])cc1)C(=O)O.[Na+].[Na+].[Na+].[Na+].[Na+].[Na+].[Na+].[Na+].[Na+].[Na+] (H-[sY][sY][sY][sY][sY][sY][sY][sY][sY][sY]-OH) | 30.6 s | 41 s | 32.1 s | 153.7 s | 90.5 s |
| O=C(O)[C@H](Cc1ccc(OS(=O)(=O)[O-])cc1)NC(=O)[C@H](Cc1ccc(OS(=O)(=O)[O-])cc1)NC(=O)[C@H](Cc1ccc(OS(=O)(=O)[O-])cc1)NC(=O)[C@H](Cc1ccc(OS(=O)(=O)[O-])cc1)NC(=O)[C@H](Cc1ccc(OS(=O)(=O)[O-])cc1)NC(=O)[C@H](Cc1ccc(OS(=O)(=O)[O-])cc1)NS(=O)(=O)[O-].[Na+].[Na+].[Na+].[Na+].[Na+].[Na+].[Na+] (X1-[sY][sY][sY][sY][sY]-OH) | 30.8 s | 32.3 s | 31.2 s | 64.8 s | 35.7 s |
| O=C(O)[C@H](Cc1ccc(OS(=O)(=O)[O-])cc1)NC(=O)[C@H](Cc1ccc(OS(=O)(=O)[O-])cc1)NC(=O)[C@H](Cc1ccc(OS(=O)(=O)[O-])cc1)NC(=O)[C@H](Cc1ccc(OS(=O)(=O)[O-])cc1)NC(=O)[C@H](Cc1ccc(OS(=O)(=O)[O-])cc1)NC(=O)[C@H](Cc1ccc(OS(=O)(=O)[O-])cc1)NC(=O)[C@H](Cc1ccc(OS(=O)(=O)[O-])cc1)NC(=O)[C@H](Cc1ccc(OS(=O)(=O)[O-])cc1)NC(=O)[C@H](Cc1ccc(OS(=O)(=O)[O-])cc1)NS(=O)(=O)[O-].[Na+].[Na+].[Na+].[Na+].[Na+].[Na+].[Na+].[Na+].[Na+].[Na+] (X1-[sY][sY][sY][sY][sY][sY][sY][sY]-OH) | 31.9 s | 36.5 s | 33.1 s | 95.8 s | 45.7 s |
| O=C([O-])[C@H](Cc1ccc(OS(=O)(=O)[O-])cc1)NC(=O)[C@H](Cc1ccc(OS(=O)(=O)[O-])cc1)NC(=O)[C@H](Cc1ccc(OS(=O)(=O)[O-])cc1)NC(=O)[C@H](Cc1ccc(OS(=O)(=O)[O-])cc1)NC(=O)[C@H](Cc1ccc(OS(=O)(=O)[O-])cc1)NC(=O)[C@H](Cc1ccc(OS(=O)(=O)[O-])cc1)NC(=O)[C@H](Cc1ccc(OS(=O)(=O)[O-])cc1)NC(=O)[C@H](Cc1ccc(OS(=O)(=O)[O-])cc1)NC(=O)[C@H](Cc1ccc(OS(=O)(=O)[O-])cc1)NC(=O)[C@H](Cc1ccc(OS(=O)(=O)[O-])cc1)NC(=O)[C@H](Cc1ccc(OS(=O)(=O)[O-])cc1)NC(=O)[C@H](Cc1ccc(OS(=O)(=O)[O-])cc1)NS(=O)(=O)[O-].[Na+].[Na+].[Na+].[Na+].[Na+].[Na+].[Na+].[Na+].[Na+].[Na+].[Na+].[Na+].[Na+].[Na+] (X1-[sY][sY][sY][sY][sY][sY][sY][sY][sY][sY][sY]-OH) | 32 s | 50.3 s | 37.6 s | 172.1 s | 75.7 s |
